Measured values reported in US20060013775A1, “Use of ppar activators for the treatment of pulmonary fibrosis” (priority 2001, published 2006).

Tested on: Primary human lung fibroblasts
Assay: α-SMA positive cell (myofibroblast) count in primary lung fibroblast strains from ILD patients
Type: cell-based
Details: for percentage of α-SMA cells (α-SMA positive cells as a percentage of total cells): pioglitazone 3 μM, 3 days; for percentage of α-SMA cells: 10 days, vehicle 16.5 (SEM 2.7), n=4
Excerpt: Primary human lung fibroblasts were derived from patients with ILD (Idiopathic Pulmonary Fibrosis or Chronic Hypersensitivity Pneumonitis). Patients had clinical, functional and radiologic features which fulfil the diagnostic criteria for an ILD. Briefly, they had progressive dyspnea, bilateral reticulonodular images on chest roentgenogram, restrictive lung functional impairment, with decreased lung volumes and compliance, and hypoxemia at rest that worsened with exercise. The methods used to isolate and culture the lung fibroblasts and count cells are described in Wang et al, Am. J. Physiol. Lung 277:L1158-1164 (1999). In brief, lung fibroblasts were isolated by trypsin digestion of tissues minced to 1 mm^2 fragments. Fibroblast/myofibroblast strains were established in Dulbecco's modified Eagle's medium (or in Hams F-12 medium) supplemented with 10% fetal calf serum, 200 U/ml penicillin, and […] streptomycin, and were cultured in 24-well plates. All cells were cultured at 37° C. in 95% air-5% carbon dioxide. For these experiments, 2 strains were used. In order to quantify myofibroblast numbers, the myofibroblast marker alpha-smooth muscle actin (α-SMA) was measured. […] In a first experiment, the 2 strains were grown to 70-80% confluence. The cells were exposed to pioglitazone at 3 μM or drug vehicle for 3 days, after which the number of α-SMA positive cells was quantified (sample size 24) as a percentage of total cells. For one strain, the percentage of α-SMA cells was 27 (standard error mean 3.7) with control and 17 (standard error mean 2.5) in the presence of 3 μM pioglitazone. The drug effect was statistically significant (P≦0.01 Student-Newman-Keuls Multiple Comparisons Test). For the second strain, the respective values were 30.6 (standard error of mean 2.7) and 26 (standard error of mean 2.9) although the difference was not statistically significant. In a second experiment, the effect of pioglitazone on the second strain was studied again, but the exposure time was increased to 10 days and the effects of lower and higher concentrations (1 μM and 10 μM) were studied. After 10 days treatment with vehicle, the percentage of α-SMA cells was 16.5 (standard error of mean 2.7); after 10 days treatment with pioglitazone at 1 μM the percentage was 15.3 (standard error of mean 1.8); and after treatment with pioglitazone at 10 μM the percentage of α-SMA cells was 7.4 (standard error of mean 1.8) (all n=4). The reduction in α-SMA cells by 10 μM pioglitazone was significant (P≦0.05 Dunnett Multiple Comparisons Test).

## CCc1ccc(CCOc2ccc(CC3SC(=O)NC3=O)cc2)nc1 (stereo not shown) [pioglitazone]
First strain, control 27 (SEM 3.7), statistically significant P≦0.01, sample size 24
  percentage of α-SMA cells (α-SMA positive cells as a percentage of total cells): 17 (standard error mean 2.5) percentage
Second strain, pioglitazone 1 μM
  percentage of α-SMA cells: 15.3 (standard error of mean 1.8) percentage
Second strain, control 30.6 (SEM 2.7), difference not statistically significant
  percentage of α-SMA cells (α-SMA positive cells as a percentage of total cells): 26 (standard error of mean 2.9) percentage
Second strain, pioglitazone 10 μM, significant P≦0.05
  percentage of α-SMA cells: 7.4 (standard error of mean 1.8) percentage
